Reference: publication PMC8921834, “Septins tune lipid kinase activity and PI(4,5)P2 turnover during G-protein–coupled PLC signalling in vivo” (Life Science Alliance, 2022)

Biological target: T1, dPIP5K^L (Drosophila melanogaster, UniProt A0A6M3Q9L5)
T1 construct: gene PIP5K59B; full-length long isoform, 897 residues, about 100 kD; cDNA from fly retinae in pUAST-attB, transiently expressed in Drosophila S2R+ cells; lysate assayed
Test: in vitro lipid kinase assay, LC-MS/MS of product:substrate ratio
Assay type: biochemical
Conditions: S2R+ lysate 10 μg; 600 pmol PI4P with phosphatidylserine micelles; ATP (40 μM in 2x buffer), pH 7.4, 30 °C, 30 min

T1 sequence (A0A6M3Q9L5 1-891): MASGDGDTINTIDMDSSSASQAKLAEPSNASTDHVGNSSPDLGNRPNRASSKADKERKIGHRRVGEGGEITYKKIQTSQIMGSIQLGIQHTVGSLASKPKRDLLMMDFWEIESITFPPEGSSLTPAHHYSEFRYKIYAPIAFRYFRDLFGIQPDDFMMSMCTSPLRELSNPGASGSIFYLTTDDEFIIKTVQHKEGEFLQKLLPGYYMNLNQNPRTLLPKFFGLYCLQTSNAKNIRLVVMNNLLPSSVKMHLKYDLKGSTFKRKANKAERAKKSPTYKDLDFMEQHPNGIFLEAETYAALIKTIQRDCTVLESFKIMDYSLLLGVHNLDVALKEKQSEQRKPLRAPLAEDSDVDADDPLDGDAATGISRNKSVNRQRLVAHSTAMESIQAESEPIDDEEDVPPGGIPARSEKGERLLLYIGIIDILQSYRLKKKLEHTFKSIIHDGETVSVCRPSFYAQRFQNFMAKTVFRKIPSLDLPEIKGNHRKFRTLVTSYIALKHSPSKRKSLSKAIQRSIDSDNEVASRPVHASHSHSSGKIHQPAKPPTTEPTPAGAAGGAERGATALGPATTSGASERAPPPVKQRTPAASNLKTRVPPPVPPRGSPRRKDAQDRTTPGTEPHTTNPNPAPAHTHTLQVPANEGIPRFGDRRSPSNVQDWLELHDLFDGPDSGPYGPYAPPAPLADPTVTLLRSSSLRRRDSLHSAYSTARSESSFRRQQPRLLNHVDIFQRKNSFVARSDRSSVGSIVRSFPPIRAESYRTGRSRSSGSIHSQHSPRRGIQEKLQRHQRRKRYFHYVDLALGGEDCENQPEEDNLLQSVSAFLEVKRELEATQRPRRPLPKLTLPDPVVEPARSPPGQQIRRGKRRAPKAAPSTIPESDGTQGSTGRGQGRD

CCCCC/C=C\C/C=C\C/C=C\C/C=C\CCCC(=O)O[C@H](COC(=O)CCCCCCCCCCCCCCCC)COP(=O)(O)O[C@H]1[C@H](O)[C@@H](O)[C@H](OP(=O)(O)O)[C@@H](O)[C@H]1O [37:4 PI4P]
response ratio: response ratio of dPIP5K^L transfected lysates was significantly higher
